Columns and labels:
UM-UC-3 xenograft tumors = assay: Established UM-UC-3 mouse xenograft tumors; assay type: in vivo; details: oral dosing of 200 mg/kg
Description: (§1) Male and female Nu/Nu mice were purchased from Harlan Sprague Dawley (Indianapolis, Ind.). Female Nu/Nu mice were used for all xenograft evaluations with the exception of the PC-3 xenografts where male Nu/Nu mice were used. Cell lines were expanded in vitro in complete media, and if adherent were harvested by trypsin-EDTA, centrifuged and resuspended in PBS 1:1 with Matrigel (BD Bioscienes). Cells were inoculated subcutaneously in the right hind flank of mice. […] Tumor volumes and body weights were determined twice a week, and tumor weights were measured at the completion of the translational xenograft studies.

NIH-3T3/PIM-2 xenografts = assay: NIH-3T3/PIM-2 over-expression tumor xenograft; assay type: in vivo, mouse; details: mice bearing NIH-3T3 or NIH-3T3/PIM-2 xenografts
Description: (§2) Male and female Nu/Nu mice were purchased from Harlan Sprague Dawley (Indianapolis, Ind.). Female Nu/Nu mice were used for all xenograft evaluations with the exception of the PC-3 xenografts where male Nu/Nu mice were used. Cell lines were expanded in vitro in complete media, and if adherent were harvested by trypsin-EDTA, centrifuged and resuspended in PBS 1:1 with Matrigel (BD Bioscienes). Cells were inoculated subcutaneously in the right hind flank of mice. When tumors reached 100-200 mm^3 by caliper measurement, mice were randomized and dosing of SGI-9481 or vehicle control began and continued every day for 5 days (QD×5) with 2 days off for 18-21 days. Tumor volumes and body weights were determined twice a week, and tumor weights were measured at the completion of the translational xenograft studies.
(§3) The prostate cancer cell line 22RV1 engineered to over-express PIM-1 as previously described (Mumenthaler, et al, Mol. Cancer Ther., 2009, 8(10)2882-93) was evaluated in vivo. A second model engineered to over-express PIM-2 was established using the NIH-3T3 mouse fibroblast cell line.

[1] = tested on: ML-2 cells (wild-type FLT3) xenografts; assay: ML-2 (wild-type FLT3) mouse xenograft; assay type: in vivo
Description: as §2

UM-UC-3 cells = assay: Colony formation assay, UM-UC-3; assay type: cell-based
Procedure: (§4) For shRNA growth experiments, 500 UM-UC-3 cells were seeded in a 12-well plate 48 hours post-transduction and cultured for 8-10 days at 37° C. in 5% CO2. Cells were fixed with 4% paraformaldehyde in PBS, washed twice with PBS, and stained with a crystal violet solution (1% crystal violet, 10% ethanol in water). Stained cells were washed thrice with water, and imaged after drying on a GelCount colony counter (Oxford Optronix Ltd., Oxford, UK). Total staining intensity per well was determined by lysis of cells with 200 μl of Triton X-100 lysis buffer (1% Triton X-100, 50 mM Tris-HCl pH 7.4, 150 mM NaCl, 1 mM EDTA). Lysates (100 μl) from each well were transferred to a clear 96-well plate and absorbance at 560 nm was determined on an Envision microplate reader. IC50 values were determined using GraphPad Prism software. For compound treated PC-3 and UM-UC-3, cells were seeded and stained as above, but were incubated with various concentrations of test compound or DMSO one day after seeding.
(§5) Translational models were also explored for PIM dependency using shRNA knockdown. The UM-UC-3 urinary epithelial bladder carcinoma cell line was used to verify and validate dependency on PIM-1 for growth. […] Reduction of PIM-1 mRNA and growth also were observed using both PIM-1 and PIM-2 shRNA in the androgen-independent prostate carcinoma cell line PC-3 (data not shown).

22RV1/PIM-1 xenografts = assay: 22RV1/PIM-1 over-expression tumor xenograft; assay type: in vivo, mouse; details: mice bearing 22RV1 or 22RV1/PIM-1 xenografts
Description: as §2, §3

PC-3 cells = assay: Colony formation assay, PC-3; assay type: cell-based
Procedure: as §4, §5

PC-3 xenograft tumors = assay: Established PC-3 mouse xenograft tumors; assay type: in vivo; details: oral dosing of 200 mg/kg
Description: as §1

[2] = Pharmacokinetic studies of PC-3 tumor-burdened mice; assay type: in vivo, mouse; details: 200 mg/kg dosing
MOLM-13 = assay: In vitro viability assay, MOLM-13; assay type: cell-based
Procedure: (§6) Adherent or suspension cancer cell lines were seeded at 2000-5000 cells/well in a 96-well plate, or 1000-2000 cells/well in a 384-well plate. Suspension cells were treated with drug the same day as seeding, while adherent cells were incubated overnight at 37° C. in 5% CO2 prior to drug treatment. All cells were treated for 72 hours, then lysed with ATPlite (Perkin Elmer) and measured on an Envision microplate reader. IC50 values were determined using GraphPad Prism software.
(§7) Over 35 cell lines were tested, and the most sensitive cell lines from various indications were selected and verified by multiple EC50 determinations (FIG. 6). […] Anti-proliferative activity using PIM-2 shRNA against FLT3-ITD driven leukemia lines has been observed (Adam (2006) Cancer Res 66:3828-35 data not shown).

MV-4-11 = assay: In vitro viability assay, MV-4-11; assay type: cell-based
Procedure: as §6, §7

| Structure (SMILES) | changes in body weight or gross adverse toxicity (UM-UC-3 xenograft tumors) | tumor growth measured by volume (caliper) and by final tumor weight (UM-UC-3 xenograft tumors) | changes in body weight (NIH-3T3/PIM-2 xenografts) | tumor growth [1] | colony growth (UM-UC-3 cells) | changes in body weight (22RV1/PIM-1 xenografts) | colony growth (PC-3 cells) | changes in body weight or gross adverse toxicity (PC-3 xenograft tumors) | tumor growth measured by volume (caliper) and by final tumor weight (PC-3 xenograft tumors) | plasma levels [2] | tumor tissue levels [2] | sensitivity of cell line (MOLM-13) | sensitivity of cell line (MV-4-11) |
| --- | --- | --- | --- | --- | --- | --- | --- | --- | --- | --- | --- | --- | --- |
| CC(C)(O)[C@H]1CC[C@H](Nc2ccc3ncc(-c4cccc(C(F)(F)F)c4)n3n2)CC1 [Compound 8-31] | no significant changes | significantly reduced | No significant changes | significant tumor growth inhibition | reduced | No significant changes | reduced | no significant changes | significantly reduced | above the in vitro proliferation EC50 | above the in vitro proliferation EC50 | – | – |
| CC(C)(O)[C@H]1CC[C@H](Nc2ccc3ncc(-c4cccc(C(F)(F)F)c4)n3n2)CC1 [SGI-9481] | – | – | – | – | – | – | – | – | – | – | – | particularly sensitive | particularly sensitive |

— patent US10392392B2, “Substituted imidazo[1,2-B]pyridazines as protein kinase inhibitors” (Tolero Pharmaceuticals, Inc., priority 2011, dated 2019)
